From patent publication US20170020838A1, “TREATMENT FOR RESPIRATORY DISEASE” (MUCOKINETICA LIMITED, priority 2014, published 2017)

What was measured:
[1] = system: kidney sodium channel; conditions: cortical collecting duct of the rabbit kidney; Muto et al. 1993; cited from earlier work
[2] = system: ciliary transport of pig airway mucus secretions on the ex vivo pig trachea; assay: Ciliary transport of mucus secretions (tracheal mucus velocity) on ex vivo normal pig trachea; conditions: for first time point where increased ciliary transport is observed (class summary): Classes 2 and 3, after application of the treatment; for onset and duration profile of increased ciliary transport of secretions: normal pig trachea, single 10 min treatment; for class of ciliary transport enhancer: three classes of ENaC regulating substances; for time of maximum transport speed following initiation of treatment / first time point with increased ciliary transport compared to BSS controls: 0.1 mM UTP; for first time point with increased ciliary transport compared to BSS controls: applied 10 min in BSS: 10^−4 M amiloride, +50 mM-NaCl, 100 mosM-mannitol, 100 mosM-sodium gluconate, combinations with 10^−5M Rx
Experimental: The lumen of each trachea was cleaned by gentle irrigation with BSS. Tracheas were opened longitudinally with scissors along the posterior aspect and mounted with the posterior aspect upwards in a moist air-tight box. An aliquot of pig airway mucus approximately 3 mm diameter was placed on the mucosal surface close to the distal end of each trachea. Tracheal mucus velocity (TMV mm/min) was measured by recording the distance moved, towards the laryngeal end of the trachea, in a given time. At the start of the study three measurements of TMV were made for each trachea to establish a baseline rate for the trachea. Solutions were then pipetted onto the luminal mucosal surface of tracheas for 10 min; BSS control tracheas (open circles; n=6); 10^−4 M amiloride in BSS (closed squares; n=6). Excess solution was then tipped off the mucosal surface and measurement of TMV repeated. TMV results at each time point are expressed as % of the baseline TMV, ciliary transport index (mean±SD).
(§1) Pig tracheas (from larynx to carina) from normal wild type animals were obtained from a local abattoir or Veterinary University. Transgenic CF piglets were produced as described by Klymiuk et al. 2012, and tracheas were obtained at a Veterinary University. The lumen of each trachea was cleaned by gentle irrigation with BSS. Tracheas were opened longitudinally with scissors along the posterior aspect and mounted with the posterior aspect upwards in a moist air-tight box. An aliquot of pig airway mucus approximately 3 mm diameter was placed on the mucosal surface close to the distal end of each trachea. Tracheal mucus velocity (TMV mm/min) was measured by recording the distance moved, towards the laryngeal end of the trachea, in a given time. At the start of a study three measurements of TMV were made for each trachea to establish a baseline rate for the trachea. Solutions were then pipetted onto the luminal mucosal surface of tracheas for 10 min. Then excess solution was tipped off the mucosal surface and measurement of TMV repeated. TMV results at each time point are expressed as % of the baseline TMV, ciliary transport index (mean±SD).

[3] = system: ciliary transport of pig airway mucus secretions on the ex vivo trachea of transgenic CF piglets; assay: Ciliary transport of mucus secretions on ex vivo trachea of transgenic CF piglets; set-up: speed of ciliary transport at the first three time points (25, 40 and 55 min), day 1: dose or concentration left out as unconfirmed
Experimental: FIG. 13 Study of the effects of 6-amidino-2-napthyl 4-guanidinobenzoate in BSS, and a combination of hyperosmotic saline and 6-amidino-2-napthyl 4-guanidinobenzoate in BSS on ciliary transport of pig airway mucus secretions on the ex vivo trachea of transgenic CF piglets. Transgenic CF piglets were produced as described by Klymiuk et al. 2012, and tracheas obtained at a Veterinary University. Study methods were otherwise as described in FIG. 10. Ciliary transport index (mean) was measured over two days with a second treatment period at the start of the second day.
as §1

[4] = system: ENaC; conditions: human airway epithelial cells; Rasgado et al. 2009 & 2013; cited from earlier work

SMILES | action on the kidney sodium channel [1] | ciliary transport speed at the first two time points (25 and 40 min) compared to BSS controls ([2]; 10^−5M in BSS) | ciliary transport at 24 h following exposure to the treatment (class summary) ([2]; Class 3) | first time point where increased ciliary transport is observed (class summary) [2] [min] | dose of maximum increase in ciliary transport ([2]; at 3 h 40 min, tested 10^−9 M to 10^−5 M) | onset and duration profile of increased ciliary transport of secretions [2] | class of ciliary transport enhancer [2] | speed of ciliary transport at the first three time points (25, 40 and 55 min), day 1 ([3]; in BSS, 10 min) | speed of ciliary transport at the first time point (25 min), day 2 ([3]; second 10 min treatment with 10^−5 M at 14 h 10 min) | onset and duration profile of increased ciliary transport, both days ([3]; transgenic CF pig tracheas) | time of maximum transport speed following initiation of treatment ([2]; 10^−4 M amiloride) [min] | first time point with increased ciliary transport compared to BSS controls [2] [min] | difference from BSS control tracheas at 40 min, 55 min and 1 h 10 min ([2]; 10^−4 M amiloride) | duration of stimulation of ciliary transport ([2]; 10^−4 M amiloride) | time by which transport speed returned to control levels ([2]; 10^−4 M amiloride) [min] | stimulated ciliary transport through to (last time point) ([2]; 10^−4 M amiloride in BSS applied 10 min) [min] | onset of increased ciliary transport of secretions (class summary) ([2]; Class 1) | return to control transport rate (class summary) ([2]; Class 1) [min] | peak increase in the rate of ciliary transport (class summary) ([2]; Classes 1 to 3 of ciliary transport enhancers) [%] | effect of hyperosmotic concentrations on ENaC activity [4]
N=C(N)Nc1ccc(C(=O)Oc2ccc3cc(C(=N)N)ccc3c2)cc1 [6-amidino-2-napthyl 4-guanidinobenzoate] | weak, short acting inhibitor | no increase in speed | continues to exceed control transport rate | 55 | 10^−6 M | slow-onset long duration | Slow onset—long duration | no increase in speed | No increase in speed | slow-onset long duration |  |  |  |  |  |  |  |  |  | 
O=c1ccn([C@@H]2O[C@H](COP(=O)(O)OP(=O)(O)OP(=O)(O)O)[C@@H](O)[C@H]2O)c(=O)[nH]1 [UTP, uridine 5′-triphosphate] |  |  |  | 25 |  | medium-onset medium duration | Medium onset—medium duration |  |  |  | 55 | 25 |  |  |  |  |  |  |  | 
N=C(N)NC(=O)c1nc(Cl)c(N)nc1N [amiloride] |  |  |  |  |  | rapid onset and of short duration | Rapid onset—short duration |  |  |  | 25 | 10 | no significant difference | less than 1 h | ≤ 40 | 35 | immediate | ≤ 40 | 30 | 
O=C([O-])[C@H](O)[C@@H](O)[C@H](O)[C@H](O)CO.[Na+] [hyperosmotic sodium gluconate, sodium gluconate] |  |  |  | 25 |  | medium-onset medium duration | Medium onset—medium duration |  |  |  |  | 25 |  |  |  |  |  |  |  | 
OC[C@@H](O)[C@@H](O)[C@H](O)[C@H](O)CO [hyperosmotic mannitol, mannitol] |  |  |  | 25 |  | medium-onset medium duration | Medium onset—medium duration |  |  |  |  | 25 |  |  |  |  |  |  |  | reduced ENaC activity
